Patent publication US7504403B2, “Substituted heterocyclic compounds and methods of use” (Amgen Inc., priority 2004, dated 2009)

System: LPS induced TNF release
Assay: Lipopolysaccharide-Activated THP1 Cell TNF Production Assay
Type: cell-based
Details: Homo sapiens, THP-1
Procedure: Lipopolysaccharide-Activated THP1 Cell TNF Production Assay
THP1 cells are resuspended in fresh THP1 media (RPMI 1640, 10% heat-inactivated FBS, 1×PGS, 1×NEAA, plus 30 μM βME) at a concentration of 1E6/mL. One hundred microliters of cells per well are plated in a polystyrene 96-well tissue culture. One microgram per mL of bacterial LPS is prepared in THP1 media and is transferred to the wells. Test compounds are dissolved in 100% DMSO and are serially diluted 3 fold in a polypropylene 96-well microtiter plate (drug plate). HI control and LO control wells contain only DMSO. One microliter of test compound from the drug plate followed by 10 μL of LPS are transferred to the cell plate. The treated cells are induced to synthesize and secrete TNF-α at 37° C. for 3 h. Forty microliters of conditioned media are transferred to a 96-well polypropylene plate containing 110 μL of ECL buffer (50 mM Tris-HCl pH 8.0, 100 mM NaCl, 0.05% Tween 20, 0.05% NaN3 and 1%FBS) supplemented with 0.44 nM MAB610 monoclonal Ab (R&D Systems), 0.34 nM ruthenylated AF210NA polyclonal Ab (R&D Systems) and 44 μg/mL sheep anti-mouse M280 Dynabeads (Dynal). After a 2 h incubation at room temperature with shaking, the reaction is read on the ECL M8 Instrument (IGEN Inc.). A low voltage is applied to the ruthenylated TNF-α immune complexes, which in the presence of TPA (the active component in Origlo), results in a cyclical redox reaction generating light at […]. The amount of secreted TNF-α in the presence of compound compared with that in the presence of DMSO vehicle alone (HI control) is calculated using the formula: % control (POC)=(cpd−average LO)/(average HI−average LO)*100. Data (consisting of POC and inhibitor concentration in μM) is fitted to a 4-parameter equation (y=A+((B−A)/(1+((x/C)^D))), where A is the minimum y (POC) value, B is the maximum y (POC), C is the x (cpd concentration) at the point of inflection and D is the slope factor) using a Levenburg-Marquardt non-linear regression algorithm.

SMILES	IC50
C[C@H](Cc1cccc(CN)c1)Nc1nccc(N2CCCn3c2nc(-c2ccccc2)cc3=O)n1 [9-{2-[2-(3-aminomethyl-phenyl)-1(R)-methyl-ethylamino]-pyrimidin-4-yl}-2-phenyl-6,7,8,9-tetrahydro-pyrimido[1,2-a]pyrimidin-4-one]	≤ 20 µM
Cc1ccc(-c2cc(=O)n3c(n2)N(c2ccnc(N[C@@H](C)c4ccccc4)n2)CCC3)cc1C [Example 1, 2-(3,4-Dimethyl-phenyl)-9-[2-(1(S)-phenyl-ethylamino) -pyrimidin-4-yl]-6,7,8,9-tetrahydro-pyrimido[1,2-a]pyrimidin-4-one]	≤ 20 µM
C[C@H](Nc1nccc(N2CCCn3c2nc(-c2ccccc2F)cc3=O)n1)c1ccccc1 [Example 2, 2-(2-fluorophenyl)-9-[2-(1(S)-phenyl-ethylamino)-pyrimidin-4-yl]-6,7,8,9-tetrahydro-pyrimido[1,2-a]pyrimidin-4-one]	≤ 20 µM
C[C@H](Nc1nccc(N2CCCn3c2nc(-c2ccccc2C(F)(F)F)cc3=O)n1)c1ccccc1 [Example 3, 2-(2-trifluoromethylphenyl)-9-[2-(1(S)-phenyl-ethylamino) -pyrimidin-4-yl]-6,7,8,9-tetrahydro-pyrimido[1,2-a]pyrimidin-4-one]	≤ 20 µM
C[C@H](Nc1nccc(N2CCCn3c2nc(-c2ccc(F)cc2)cc3=O)n1)c1ccccc1 [Example 4, 2-(4-fluorophenyl)-9-[2-(1(S)-phenyl-ethylamino)-pyrimidin-4-yl]-6,7,8,9-tetrahydro-pyrimido[1,2-a]pyrimidin-4-one]	≤ 20 µM
COc1ccc(-c2cc(=O)n3c(n2)N(c2ccnc(N[C@@H](C)c4ccccc4)n2)CCC3)cc1 [Example 5, 2-(4-methoxyphenyl)-9-[2-(1(S)-phenyl-ethylamino)-pyrimidin-4-yl]-6,7,8,9-tetrahydro-pyrimido[1,2-a]pyrimidin-4-one]	≤ 20 µM
C[C@H](Nc1nccc(N2CCCn3c2nc(-c2cccc([N+](=O)[O-])c2)cc3=O)n1)c1ccccc1 [Example 6, 2-(3-nitrophenyl)-9-[2-(1(S)-phenyl-ethylamino)-pyrimidin-4-yl]-6,7,8,9-tetrahydro-pyrimido[1,2-a]pyrimidin-4-one]	≤ 20 µM
C[C@H](Nc1nccc(N2CCCn3c2nc(-c2cccc(N)c2)cc3=O)n1)c1ccccc1 [Example 7, 2-(3-aminophenyl)-9-[2-(1(S)-phenyl-ethylamino)-pyrimidin-4-yl]-6,7,8,9-tetrahydro-pyrimido[1,2-a]pyrimidin-4-one]	≤ 20 µM
C[C@H](Nc1nccc(N2CCCn3c2nc(C(C)(C)C)cc3=O)n1)c1ccccc1 [Example 11, 2-(tert-butyl)-9-[2-(1(S)-phenyl-ethylamino)-pyrimidin-4-yl]-6,7,8,9-tetrahydro-pyrimido[1,2-a]pyrimidin-4-one]	≤ 20 µM
CCc1cccc(-c2cc(=O)n3c(n2)N(c2ccnc(N[C@@H](C)c4ccccc4)n2)CCC3)c1 [Example 12, 2-(3-ethylphenyl)-9-[2-(1(S)-phenyl-ethylamino)-pyrimidin-4-yl]-6,7,8,9-tetrahydro-pyrimido[1,2-a]pyrimidin-4-one]	≤ 20 µM
C[C@H](Nc1nccc(N2CCCn3c2nc(-c2ccc(Cl)c(Cl)c2)cc3=O)n1)c1ccccc1 [Example 13, 2-(3,4-dichlorophenyl)-9-[2-(1(S)-phenyl-ethylamino) -pyrimidin-4-yl]-6,7,8,9-tetrahydro-pyrimido[1,2-a]pyrimidin-4-one]	≤ 20 µM
CC(Cc1cccc(CN)c1)Nc1nccc(N2CCCn3c2nc(-c2ccccc2)c(N)c3=O)n1 (stereo not shown) [Example 14, 3-Amino-9-{2-[2-(3-aminomethyl-phenyl)-1-methyl-ethylamino]-pyrimidin-4-yl}-2-phenyl-6,7,8,9-tetrahydro-pyrimido[1,2-a]pyrimidin-4-one]	≤ 20 µM
O=c1c([N+](=O)[O-])c(-c2ccccc2)nc2n1CCCN2c1ccnc(NCCc2ccccc2)n1 [Example 15, 3-Nitro-9-(2-phenethylamino-pyrimidin-4-yl)-2-phenyl-6,7,8,9-tetrahydro-pyrimido[1,2-a]pyrimidin-4-one]	≤ 20 µM
